In paper PMC6320863, “Interaction of Chrysin and Its Main Conjugated Metabolites Chrysin-7-Sulfate and Chrysin-7-Glucuronide with Serum Albumin” (International Journal of Molecular Sciences, 2018):

test system: T1, ochratoxin A–HSA complex; assay: Fluorescence anisotropy of ochratoxin A–HSA complex; type: binding, human; settings: 1.0 µmol/L ochratoxin A, 1.5 µmol/L HSA, flavonoid 2.5–30 μM, PBS pH 7.4, λex 393 nm, λem 446 nm
T1 construct: purchased Sigma-Aldrich

Question: Which “Fluorescence anisotropy of ochratoxin A” value does the source give for O=c1cc(-c2ccccc2)oc2cc(O)cc(O)c12 [Chrysin, 5,7-dihydroxyflavone] here?
Answer: failed to affect

Question: O=C(O)C1OC(Oc2cc(O)c3c(=O)cc(-c4ccccc4)oc3c2)C(O)C(O)C1O (stereo not drawn) [Chrysin-7-glucuronide, chrysin-7-glucuronide] was tested. Which “Fluorescence anisotropy of ochratoxin A” value did it give?
Answer: failed to affect

Question: How did the “Fluorescence anisotropy of ochratoxin A” value turn out when O=c1cc(-c2ccccc2)oc2cc(OS(=O)(=O)O)cc(O)c12 [Chrysin-7-sulfate, chrysin-7-sulfate] was run?
Answer: concentration-dependent decrease
